From ChEMBL document CHEMBL1629419, “1,3-Diphenyl-1H-pyrazole derivatives as a new series of potent PPARγ partial agonists” (Bioorg Med Chem, 2010)

Experiments:
[1] = target: T1, Peroxisome proliferator-activated receptor gamma (Homo sapiens) (UniProt P37231); experiment: Displacement of fluormone PPAR-green from N-terminal His-tagged human PPARgamma-LBD assessed as logarithm unit binding affinity value at 10 uM after 2 hrs by fluorescence polarization assay
T1 sequence (whole entry): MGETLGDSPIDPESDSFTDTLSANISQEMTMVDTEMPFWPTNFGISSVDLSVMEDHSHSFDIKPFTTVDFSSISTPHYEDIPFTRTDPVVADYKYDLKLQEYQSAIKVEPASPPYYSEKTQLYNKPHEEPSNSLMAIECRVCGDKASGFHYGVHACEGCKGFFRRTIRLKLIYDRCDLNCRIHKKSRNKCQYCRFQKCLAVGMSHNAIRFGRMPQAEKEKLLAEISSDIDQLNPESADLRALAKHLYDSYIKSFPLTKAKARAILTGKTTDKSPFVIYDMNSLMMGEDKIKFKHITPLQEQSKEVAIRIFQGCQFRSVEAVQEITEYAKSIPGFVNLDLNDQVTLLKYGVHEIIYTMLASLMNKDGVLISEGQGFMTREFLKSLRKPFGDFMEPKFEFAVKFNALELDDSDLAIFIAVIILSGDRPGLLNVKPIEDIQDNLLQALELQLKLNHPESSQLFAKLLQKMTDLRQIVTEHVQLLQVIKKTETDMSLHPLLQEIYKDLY

[2] = target: T2, Peroxisome proliferator-activated receptor gamma (Homo sapiens, UniProt P37231); experiment: Displacement of fluormone PPAR-green from N-terminal His-tagged human PPARgamma-LBD after 2 hrs by fluorescence polarization assay
T2 sequence (P37231 whole entry): T1 sequence (whole entry)

[3] = target: T2, Peroxisome proliferator-activated receptor gamma; experiment: Partial agonist activity at human PPARgamma-LBD expressed in HEK293T cells assessed as induction of receptor transactivation after 24 hrs by luciferase reporter gene assay; type: functional, cell-based, HEK-293T

Structure (SMILES) | binding affinity [1] | IC50 [2] | EC50 [3]
COc1ccc(-c2nn(-c3ccccc3)cc2C(=O)Oc2ccc(C=O)cc2OC)cc1OC | 1.82 | – | –
COc1ccc(-c2nn(-c3ccccc3)cc2C(=O)OCC(=O)c2ccc(Cl)cc2)cc1 | 1.42 | – | –
O=C(N/N=C/c1cn(-c2ccccc2)nc1-c1ccccc1)c1ccc([N+](=O)[O-])cc1 | 1.37 | – | –
S=C(NCc1ccco1)NCc1cn(-c2ccccc2)nc1-c1ccccc1 | 1.73 | – | –
Cc1ccc(-c2nn(-c3ccccc3)cc2C(=O)NCC(=O)c2ccccc2)cc1 | 1.26 | – | –
COc1cc(C=O)ccc1OC(=O)c1cn(-c2ccccc2)nc1-c1ccc([N+](=O)[O-])cc1 | 1.35 | – | –
O=C(COC(=O)c1cn(-c2ccccc2)nc1-c1ccccc1)c1ccc(Cl)c([N+](=O)[O-])c1 | 1.98 | – | –
COc1cc(C=O)ccc1OC(=O)c1cn(-c2ccccc2)nc1-c1ccc(OC)c([N+](=O)[O-])c1 | 1.36 | – | –
O=C(Oc1ccccc1)c1cn(-c2ccccc2)nc1-c1ccc(F)cc1 | 1.55 | – | –
Cc1ccc(-c2nn(-c3ccccc3)cc2C(=O)Oc2ccccc2)cc1 | 1.31 | – | –
O=C(Oc1cccc2cccnc12)c1cn(-c2ccccc2)nc1-c1ccccc1 | 1.52 | – | –
COc1cc(C=O)ccc1OC(=O)c1cn(-c2ccccc2)nc1-c1ccc(Br)cc1 | 1.73 | – | –
CC(=O)c1ccc(OC(=O)c2cn(-c3ccccc3)nc2-c2ccccc2)cc1 | 1.38 | – | –
CC(=O)Nc1ccc(OC(=O)c2cn(-c3ccccc3)nc2-c2ccccc2)cc1 | 1.58 | – | –
COc1ccc(-c2nn(-c3ccccc3)cc2C(=O)OCC(=O)c2ccc([N+](=O)[O-])cc2)cc1 | 1.57 | – | –
COc1ccc(-c2nn(-c3ccccc3)cc2C(=O)Oc2ccccc2)cc1 | 1.45 | – | –
COc1cc(C=O)ccc1OC(=O)c1cn(-c2ccccc2)nc1-c1ccc(C)cc1 | 1.81 | – | –
O=C(OCc1ccc([N+](=O)[O-])cc1)c1cn(-c2ccccc2)nc1-c1ccccc1 | 1.38 | – | –

Structure (SMILES) | binding affinity [1] | IC50 [2] | EC50 [3]
Fc1ccc(-c2nn(-c3ccccc3)cc2CNCc2ccccc2)cc1 | 1.63 | – | –
COc1cc(C=O)ccc1OC(=O)c1cn(-c2ccccc2)nc1-c1ccccc1 | 1.99 | – | –
COc1ccc(-c2nn(-c3ccccc3)cc2C(=O)Oc2ccc(C)cc2)cc1OC | 1.85 | – | –
CC(C)S(=O)(=O)c1ccc(COC(=O)c2cn(-c3ccccc3)nc2-c2ccccc2)cc1 | 1.72 | – | –
O=C(Oc1ccccc1)c1cn(-c2ccccc2)nc1-c1ccc(Cl)cc1 | 1.15 | – | –
COc1cc(C=O)ccc1OC(=O)c1cn(-c2ccccc2)nc1-c1ccc(Cl)cc1 | 1.81 | – | –
COc1ccc(-c2nn(-c3ccccc3)cc2C(=O)Oc2ccccc2)cc1OC | 1.64 | – | –
COc1ccc(-c2nn(-c3ccccc3)cc2C(=O)OCC(=O)c2ccc(C)c([N+](=O)[O-])c2)cc1 | 1.05 | – | –
O=C(Oc1ccccc1)c1cn(-c2ccccc2)nc1-c1ccc(Br)cc1 | 1.22 | – | –
COc1ccc(-c2nn(-c3ccccc3)cc2C(=O)OCC(=O)c2ccccc2Cl)cc1 | 1.37 | – | –
COc1cc(C=O)ccc1OC(=O)c1cn(-c2ccccc2)nc1-c1ccc(C2COCCO2)cc1 (stereo not drawn) | 1.5 | – | –
O=C(COC(=O)c1cn(-c2ccccc2)nc1-c1ccc(Cl)cc1)c1ccccc1 | 1.15 | – | –
COc1ccc(-c2nn(-c3ccccc3)cc2C(=O)OCC(=O)c2ccc(Br)cc2)cc1 | 1.2 | – | –
O=C(Oc1ccc([N+](=O)[O-])cc1)c1cn(-c2ccccc2)nc1-c1ccccc1 | 1.9 | 973 nM | 2290 nM
COc1cc(C=O)ccc1OC(=O)c1cn(-c2ccccc2)nc1-c1ccc(F)cc1 | 1.82 | – | –
O=C(Oc1ccccc1)c1cn(-c2ccccc2)nc1-c1cccc([N+](=O)[O-])c1 | 1.38 | – | –
O=C(N/N=C/c1cn(-c2ccccc2)nc1-c1ccc(F)cc1)C(O)c1ccccc1 (stereo not drawn) | 1.68 | – | –
O=C(Oc1ccccc1)c1cn(-c2ccccc2)nc1-c1ccccc1 | 1.63 | – | –
